Publication PMC6271009, “Design and Synthesis of Thiazolo[5,4-f]quinazolines as DYRK1A Inhibitors, Part II” (Molecules, 2014)

Assays:
DYRK1B = molecular target: T1, DYRK1B (Homo sapiens, UniProt Q9Y463); assay: DYRK1B kinase assay, Reaction Biology Corporation HotSpot technology (33P ATP); format: biochemical; settings: purified recombinant kinase, 10 µM ATP, 120 min, room temperature
T1 construct: Purified recombinant kinase was incubated with serial 3-fold dilutions of test compounds; purchased Reaction Biology Corporation

DYRK1A = molecular target: T2, DYRK1A (Homo sapiens, UniProt Q13627); assay: DYRK1A kinase assay, Reaction Biology Corporation HotSpot technology (33P ATP); format: biochemical; settings: for IC50: purified recombinant kinase, 10 µM ATP, 120 min, room temperature
T2 construct: Purified recombinant kinase was incubated with serial 3-fold dilutions of test compounds; purchased Reaction Biology Corporation

Panc1 xenograft = settings: cited from earlier work
[1] = system: patient-derived ovarian cancer ascites spheroids; settings: cited from earlier work
[2] = system: B- and T-ALL cell lines and primary human pediatric ALL samples; design: method as in doi:10.1182/blood-2013-06-507368; settings: cited from earlier work

T1 sequence (Q9Y463 whole entry): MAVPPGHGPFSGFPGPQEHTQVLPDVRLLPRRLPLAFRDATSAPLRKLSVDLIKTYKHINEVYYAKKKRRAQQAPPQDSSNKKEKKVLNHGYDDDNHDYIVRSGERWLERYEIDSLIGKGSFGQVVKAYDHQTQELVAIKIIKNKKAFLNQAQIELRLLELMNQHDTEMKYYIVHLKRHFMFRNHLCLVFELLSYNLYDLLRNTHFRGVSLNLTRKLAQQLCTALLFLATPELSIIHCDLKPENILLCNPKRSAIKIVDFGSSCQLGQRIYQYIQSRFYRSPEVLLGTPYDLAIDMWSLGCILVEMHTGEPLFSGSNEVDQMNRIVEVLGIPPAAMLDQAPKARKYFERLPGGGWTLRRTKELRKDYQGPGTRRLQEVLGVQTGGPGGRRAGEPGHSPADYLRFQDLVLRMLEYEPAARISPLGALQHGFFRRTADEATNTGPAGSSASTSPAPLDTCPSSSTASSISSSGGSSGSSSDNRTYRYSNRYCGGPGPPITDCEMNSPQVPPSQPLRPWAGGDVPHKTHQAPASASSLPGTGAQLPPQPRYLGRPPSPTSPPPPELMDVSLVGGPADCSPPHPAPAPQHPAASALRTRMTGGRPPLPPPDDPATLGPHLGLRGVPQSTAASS

Row | Compound | IC50 (DYRK1B) | IC50 (DYRK1A) | further results
1 | COC(=N)c1nc2ccc3ncnc(Nc4ccc(OC)cc4)c3c2s1 [Compound 7a, Methyl 9-(4-methoxyphenylamino)thiazolo[5,4-f]quinazoline-2-carbimidate] | 19.2 nM | 13.1 nM | 
2 | COC(=N)c1nc2ccc3ncnc(Nc4ccc5c(c4)OCO5)c3c2s1 [Compound 7b, methyl 9-(benzo[d][1,3]dioxol-5-ylamino)thiazolo[5,4-f]quinazoline-2-carbimidate] | 4.2 nM |  | 
3 | COC(=N)c1nc2ccc3ncnc(Nc4ccc5c(c4)OCCO5)c3c2s1 [Compound 7c, Methyl 9-(2,3-dihydrobenzo[b][1,4]dioxin-6-ylamino)thiazolo[5,4-f]quinazoline-2-carbimidate] |  | 8 nM | 
4 | COC(=N)c1nc2ccc3ncnc(Nc4ccc(OC)c(OC)c4)c3c2s1 [Compound 7e, Methyl 9-(3,4-dimethoxyphenylamino)thiazolo[5,4-f]quinazoline-2-carbimidate] | 161 nM |  | 
5 | COC(=N)c1nc2ccc3ncnc(Nc4ccc(OC)cc4OC)c3c2s1 [Compound 7f, Methyl 9-(2,4-dimethoxyphenylamino)thiazolo[5,4-f]quinazoline-2-carbimidate] | 11.1 nM | 9.53 nM | 
6 | COC(=N)c1nc2ccc3ncnc(Nc4cc(OC)cc(OC)c4)c3c2s1 [Compound 7g, Methyl 9-(3,5-dimethoxyphenylamino)thiazolo[5,4-f]quinazoline-2-carbimidate] |  | 299 nM | 
7 | COC(=N)c1nc2ccc3ncnc(Nc4ccc(OC)c([N+](=O)[O-])c4)c3c2s1 [Compound 7h, Methyl 9-(4-methoxy-3-nitrophenylamino)thiazolo[5,4-f]quinazoline-2-carbimidate] |  | 124 nM | 
8 | COC(=N)c1nc2ccc3ncnc(Nc4ccc(O)c([N+](=O)[O-])c4)c3c2s1 [Compound 7k, Methyl 9-(4-hydroxy-3-nitrophenylamino)thiazolo[5,4-f]quinazoline-2-carbimidate] | 5.68 nM | 4.91 nM | 
9 | COC(=N)c1nc2ccc3ncnc(Nc4cc(OC)c(OC)c(OC)c4)c3c2s1 [Compound 7l, Methyl 9-(3,4,5-trimethoxyphenylamino)thiazolo[5,4-f]quinazoline-2-carbimidate] | 486 nM | 436 nM | 
10 | COC(=N)c1nc2ccc3ncnc(Nc4ccc(Cl)cc4)c3c2s1 [Compound 8a, Methyl 9-(4-chlorophenylamino)thiazolo[5,4-f]quinazoline-2-carbimidate] | 4.74 nM | 1.13 nM | 
11 | COC(=N)c1nc2ccc3ncnc(Nc4cccc(Cl)c4)c3c2s1 [Compound 8b, Methyl 9-(3-chlorophenylamino)thiazolo[5,4-f]quinazoline-2-carbimidate] | 18.8 nM | 13.6 nM | 
12 | COC(=N)c1nc2ccc3ncnc(Nc4ccc(Cl)cc4Cl)c3c2s1 [Compound 8c, Methyl 9-(2,4-dichlorophenylamino)thiazolo[5,4-f]quinazoline-2-carbimidate] | 0.28 nM | 0.22 nM | Toxicity in mice (Panc1 xenograft model) (Panc1 xenograft): without detectable toxicity; In vivo activity in Panc1 xenograft model (Panc1 xenograft; mice): in vivo activities; Activity in patient-derived ovarian cancer ascites spheroids [1]: promising activities
13 | COC(=N)c1nc2ccc3ncnc(Nc4ccc(Cl)c(Cl)c4)c3c2s1 [Compound 8d, Methyl 9-(3,4-dichlorophenylamino)thiazolo[5,4-f]quinazoline-2-carbimidate] |  | 66.8 nM | 
14 | COC(=N)c1nc2ccc3ncnc(Nc4ccc(F)cc4)c3c2s1 [Compound 8e, Methyl 9-(4-fluorophenylamino)thiazolo[5,4-f]quinazoline-2-carbimidate] | 9.64 nM | 6.06 nM | 
15 | COC(=N)c1nc2ccc3ncnc(Nc4ccc(Br)cc4F)c3c2s1 [Compound 8f, Methyl 9-(4-bromo-2-fluorophenylamino)thiazolo[5,4-f]quinazoline-2-carbimidate] | 6.55 nM | 3.6 nM | 
16 | COC(=N)c1nc2ccc3ncnc(Nc4ccc(OC)cc4F)c3c2s1 [Compound 8i, Methyl 9-(2-fluoro-4-methoxyphenylamino)thiazolo[5,4-f]quinazoline-2-carbimidate] |  |  | Apoptosis induction in B- and T-ALL cell lines and primary human pediatric ALL samples [2]: dose-dependently induce apoptosis; Apoptosis of primary ALL cells resistant to cytarabine ([2]; cytarabine-resistant primary ALL cells): induced apoptosis

Row | Compound | IC50 (DYRK1B) | IC50 (DYRK1A) | further results
17 | COC(=N)c1nc2ccc3ncnc(Nc4ccc(O)c(F)c4)c3c2s1 [Compound 8j, Methyl 9-(3-fluoro-4-hydroxyphenylamino)thiazolo[5,4-f]quinazoline-2-carbimidate] | 11 nM | 8.63 nM | 
18 | COC(=N)c1nc2ccc3ncnc(Nc4ccc(F)cc4F)c3c2s1 [Compound 8k, Methyl 9-(2,4-difluorophenylamino)thiazolo[5,4-f]quinazoline-2-carbimidate] | 1.07 nM | 0.94 nM | 
19 | COC(=N)c1nc2ccc3ncnc(Nc4ccc(C(F)(F)F)cc4)c3c2s1 [Compound 8l, Methyl 9-(4-(trifluoromethyl)phenylamino)thiazolo[5,4-f]quinazoline-2-carbimidate] | 186 nM | 54.8 nM | 
20 | COC(=N)c1nc2ccc3ncnc(Nc4ccccc4)c3c2s1 [Compound 9a, Methyl 9-(phenylamino)thiazolo[5,4-f]quinazoline-2-carbimidate] | 3.48 nM | 1.81 nM | 
21 | COC(=N)c1nc2ccc3ncnc(Nc4ccc(C)cc4)c3c2s1 [Compound 9b, Methyl 9-(p-tolylamino)thiazolo[5,4-f]quinazoline-2-carbimidate] | 2.83 nM | 0.98 nM | 
22 | COC(=N)c1nc2ccc3ncnc(Nc4ccc(C(C)(C)C)cc4)c3c2s1 [Compound 9c, Methyl 9-(4-tert-butylphenylamino)thiazolo[5,4-f]quinazoline-2-carbimidate] | 93.8 nM | 39 nM | 
23 | C#Cc1cccc(Nc2ncnc3ccc4nc(C(=N)OC)sc4c23)c1 [Compound 9d, Methyl 9-(3-ethynylphenylamino)thiazolo[5,4-f]quinazoline-2-carbimidate] | 46.3 nM | 40.8 nM | 
24 | COC(=N)c1nc2ccc3ncnc(Nc4ccc(C#N)cc4)c3c2s1 [Compound 9e, Methyl 9-(4-cyanophenylamino)thiazolo[5,4-f]quinazoline-2-carbimidate] | 7.69 nM | 3.89 nM | 
25 | COC(=N)c1nc2ccc3ncnc(Nc4cccc(C#N)c4)c3c2s1 [Compound 9f, Methyl 9-(3-cyanophenylamino)thiazolo[5,4-f]quinazoline-2-carbimidate] | 72 nM | 42.7 nM | 
26 | COC(=N)c1nc2ccc3ncnc(Nc4ccc(N(C)C)cc4)c3c2s1 [Compound 9h, Methyl 9-(4-(dimethylamino)phenylamino)thiazolo[5,4-f]quinazoline-2-carbimidate] | 64.3 nM | 35.6 nM | 
27 | CCOC(=N)c1nc2ccc3ncnc(Nc4ccc5c(c4)OCO5)c3c2s1 [Compound 12a, Ethyl 9-(benzo[d][1,3]dioxol-5-ylamino)thiazolo[5,4-f]quinazoline-2-carbimidate] | 7.72 nM | 6.02 nM | 
28 | CC(C)OC(=N)c1nc2ccc3ncnc(Nc4ccc5c(c4)OCO5)c3c2s1 [Compound 12b, Isopropyl 9-(benzo[d][1,3]dioxol-5-ylamino)thiazolo[5,4-f]quinazoline-2-carbimidate] | 218 nM | 125 nM | melting point: 224 to 226 °C
29 | N=C(OCc1ccccc1)c1nc2ccc3ncnc(Nc4ccc5c(c4)OCO5)c3c2s1 [Compound 12c, Benzyl 9-(benzo[d][1,3]dioxol-5-ylamino)thiazolo[5,4-f]quinazoline-2-carbimidate] | 37.3 nM | 33.9 nM | 
30 | COC(=O)c1nc2ccc3ncnc(Nc4ccc5c(c4)OCO5)c3c2s1 [Compound 13, Methyl 9-(benzo[d][1,3]dioxol-5-ylamino)thiazolo[5,4-f]quinazoline-2-carboxylate] |  |  | Affinity for DYRK1A, result in words (DYRK1A; compared with parent methyl carbimidate / secondary amine analogs): mostly inactive
31 | CC(C)(C)CNc1ncnc2ccc(-c3ccc4c(c3)OCO4)cc12 [NCGC-00189310, reference compound] | 20.6 nM | 2.2 nM | 
